Experimental data: PubChem BioAssay AID1508591

Conditions: rat; liver microsomes; pH 7.4; 15.0 min; 1.0 µM

Going from `Cc1ccc(-n2nc(C)c3c(-c4ccc(O)c(O)c4)c(C#N)c(N)nc32)cc1C` to `Cc1ccccc1C(=O)N1CCc2cc(-c3nc(NC(=O)Cc4ccccc4)sc3C)ccc21`, the half-life rises from 15 min to 24 min (1.6-fold).

First: COc1ccccc1C(=O)Nc1ccccc1C(=O)Nc1cccc(SC(F)(F)F)c1
Second: Cc1ccc(S(=O)(=O)Nc2ccccc2C(=O)Nc2nc(-c3ccccc3)co2)cc1
The half-life of the first is 4.6-fold higher: 18 min for the first, 3.9 min for the second.

Going from `COC(=O)C1=COC(C)C2CN3CCc4c([nH]c5cc(OC)c(OC)cc45)C3CC12` (stereo unspecified) to `COc1ccc(O)c2c(=O)c3c(OC)cc4c(c3oc12)C1C=COC1O4` (stereo unspecified), the half-life falls from 26.3 min to 2.79 min (9.4-fold).

`FC(F)(F)c1cccc(N2CCN(C(=S)Nc3ccccn3)CC2)c1` and `O=C(CCCN1CCC(O)(c2cccc(C(F)(F)F)c2)CC1)c1ccc(F)cc1` are within 1.5-fold of each other in half-life: 15.5 min for the first, 20.5 min for the second.

First: CN1C(=O)c2ccccc2[S@](=O)c2ccc(C(=O)NCc3cccnc3)cc21
Second: CCOc1ccc(NC(=O)c2ccc(F)c(S(=O)(=O)N(CC)Cc3ccccc3)c2)cc1
The half-life of the first is higher: greater than 30 min for the first, 1.3 min for the second.

`O=C(c1ccc(-c2ncc3cnc(-c4ccccc4)cn23)cc1)N1CCS(=O)(=O)CC1` and `O=C(Nc1ccc(S(=O)(=O)Nc2nccs2)cc1)c1ccc(-c2ccccc2)cc1` cannot be ordered by half-life: greater than 30 min for the first, greater than 30 min for the second.

Compared with `NC(=O)C1CCN(c2nc(-c3ccc(Cl)cc3)cs2)CC1`, `CC(C)(C)c1ccc(-c2csc(N3CCC(C(N)=O)CC3)n2)cc1` is 4.5-fold higher in half-life: 3.09 min for the first, 13.9 min for the second.

Compared with `COc1ccccc1N1CCN(C2CCCCC2NS(=O)(=O)c2ccccc2)CC1` (stereo unspecified), `COc1ccc(C)cc1NS(=O)(=O)c1ccc(-c2cnc(C3CC3)o2)cc1` is 2-fold higher in half-life: 1.69 min for the first, 3.38 min for the second.

First: CC(=O)N1CCN(c2nc(-c3ccc(Br)cc3)cs2)CC1
Second: CCOC(=O)C1CCN(c2nc(-c3ccc(Br)cc3)cs2)CC1
The half-life of the first is higher: greater than 30 min for the first, 2.19 min for the second.

`Cc1cc(-c2nnc3n2CCCCC3)c(C)n1-c1cccc(Cl)c1` and `CCCC1=Nc2cc(C(=O)NC3CCCCC3)ccc2Sc2ccc(C)cc21` are within 1.5-fold of each other in half-life: 1.95 min for the first, 1.48 min for the second.

First: Cc1ccc(C(=O)Nc2nc3nc(C)cc(=O)n3[nH]2)cc1
Second: Cc1ccc(S(=O)(=O)Nc2cnccc2C(=O)Nc2nc(-c3cccc(C)c3)cs2)cc1
The half-life of the first is higher: greater than 30 min for the first, 5.8 min for the second.

First: FC(F)(F)c1ccccc1-c1nc(NCc2ccccc2)c2ccccc2n1
Second: Cc1ccccc1-c1nc(NCc2ccc(-c3cccnc3)cc2)c2ccccc2n1
The half-life of the first is 2.3-fold lower: 2.74 min for the first, 6.25 min for the second.

Going from `CCC[C@H](NC(=O)/C(C#N)=C/c1cccc(Br)n1)c1ccccc1` to `O=C(NCc1ccccc1)c1cn2cc(-c3ccccc3)sc2n1`, the half-life falls from greater than 30 min to 24 min.

Going from `COc1cc(=O)n2c(c1C(=O)N(C)Cc1cscn1)CCN(C(=O)c1ccc(C)cc1C)CC2` to `CC(C)(C)c1ccc(-n2cnc3cc(C(=O)N4CCCCC4)ccc32)cc1`, the half-life falls from greater than 30 min to 2.7 min.

Compared with `O=C(Nc1ccc(S(=O)(=O)Nc2nc(-c3ccccc3)cs2)cc1)c1ccc2ccccc2c1`, `COc1ccc(S(=O)(=O)Nc2cnccc2C(=O)Nc2nc(-c3ccccc3)cs2)cc1` is lower in half-life: greater than 30 min for the first, 1.6 min for the second.

Going from `COc1cccc(Nc2ncc(-c3cccc(N(C)C)c3)c3c2OCC3)c1` to `COc1cccc(-c2noc(Nc3ccc4c(c3)OCCO4)n2)c1`, the half-life rises from 8.98 min to 20.7 min (2.3-fold).

Going from `NC(=O)C1CCN(c2nccc(Cl)n2)CC1` to `Cc1ccc(-c2nnc(N3CCC(C(N)=O)CC3)s2)cc1`, the half-life falls from greater than 30 min to 6.38 min.

Compared with `CCc1nc2c(sc3nc4c(cc32)COC(C)(C)C4)c(=O)n1Cc1ccco1`, `Cc1nc(NCc2ccco2)nc2c1C(=O)CC(C)C2` (stereo unspecified) is 2.5-fold lower in half-life: 6.88 min for the first, 2.7 min for the second.

First: CCn1nnnc1Sc1ncnc2scc(-c3ccc(C)cc3)c12
Second: Cn1nnnc1Sc1ncnc2scc(-c3cccc(S(C)(=O)=O)c3)c12
The half-life of the first is lower: 1.4 min for the first, greater than 30 min for the second.

`CCOc1ccc(CCNC(=O)c2cc3ncccc3n2Cc2cccc(C)n2)cc1OCC` and `CCOc1ccc(CCNC(=O)c2ccnn2Cc2ccccn2)cc1OCC` are within 1.5-fold of each other in half-life: 6.7 min for the first, 5.6 min for the second.

First: O=[S+]([O-])(Nc1cnc2ccccc2c1)c1ccc(NCc2ccc(Cl)cc2O)cc1
Second: Cc1cccc(NCc2ccc(O)c3ncccc23)c1
The half-life of the first is 8.2-fold higher: 18 min for the first, 2.2 min for the second.

Going from `CCOP(=O)(Cc1ccc(C(=O)Nc2ccc(Br)cc2C#N)cc1)OCC` to `CCc1ccc(S(=O)(=O)Nc2cnccc2C(=O)Nc2nc(-c3ccccc3)cs2)cc1`, the half-life falls from greater than 30 min to 4.4 min.

First: CCN1CCN(CCCOc2ccc(-c3ccccc3)cc2)CC1
Second: COc1ccc(NC2CCCN(C(=O)CCc3ccccc3F)C2)cc1 (stereo unspecified)
The half-life of the first is 3.3-fold higher: 7.9 min for the first, 2.36 min for the second.

Going from `O=C(c1ccncc1)N1CCC2(CCCN(C(c3ccccc3)c3ccccc3)C2)CC1` to `Fc1cc(Nc2nc(-c3ccncc3)nc3ccccc23)ccc1N1CCCCC1`, the half-life rises from 2.2 min to 5.9 min (2.7-fold).

First: O=C1CCCC2=C1C1(CCCC1)N=C(Nc1nc3cc(Cl)ccc3o1)N2
Second: O=C1CCCC2=C1C1(CCCC1)N=C(Nc1nc3cc(Br)ccc3o1)N2
The half-life of the first is 1.9-fold lower: 2.6 min for the first, 4.9 min for the second.

First: COc1ccc(-c2[nH]nc3ncc(-c4ccc(CO)cc4)nc23)cc1F
Second: CC(=O)Nc1ccc(CN2CCc3nc(C(C)C)nc(-c4ccc(Cl)cc4)c3CC2)cc1
The half-life of the first is 2.8-fold higher: 11.3 min for the first, 4.1 min for the second.

Compared with `CC(=O)OCCN1C(=O)c2c(C)nc3ccc(S(=O)(=O)N4CCOCC4)cc3c2C1=O`, `Cc1noc(C)c1Cc1ccc(C(=O)N2CCc3c(nc4cc(-c5ccccc5)[nH]n4c3=O)C2)o1` is 1.6-fold higher in half-life: 2.05 min for the first, 3.38 min for the second.

First: N#CC1CCN(c2nc(-c3ccc(Br)cc3)cs2)CC1
Second: O=C(O)CCNc1cc(N2CCc3ccccc3CC2)nc(-c2ccccn2)n1
The half-life of the first is lower: 24.7 min for the first, greater than 30 min for the second.

Compared with `O=C1Nc2ccc(C(=O)c3ccco3)cc2/C1=C/c1cc(Cl)c(O)c(Cl)c1`, `Cc1ccc2c(c1)/C(=C\c1cc(Cl)c(O)c(Cl)c1)C(=O)N2` is 2.9-fold higher in half-life: 7.7 min for the first, 22 min for the second.

Compared with `COC(=O)c1nc(-c2cccc3ccccc23)oc1OC`, `COC[C@@H]1CN(C(=O)c2n[nH]c3ccccc23)C[C@H]1c1nc(C)no1` is higher in half-life: 14 min for the first, greater than 30 min for the second.

`Cc1sc2ncnc(Sc3nnnn3-c3ccccc3)c2c1-c1ccccc1` and `O=C(Nc1nc(-c2ccccc2)cs1)c1ccncc1NS(=O)(=O)c1ccc(N2CCCC2=O)cc1` are within 1.5-fold of each other in half-life: 1.5 min for the first, 1.6 min for the second.

Compared with `O=C(Nc1ccc2c(N3CCCCC3)ncnc2c1)c1cc(F)cc(F)c1`, `CCCCNC(=O)CN1CCN(c2ncc(NC(=O)c3ccc(Cl)cc3)cc2C(=O)O)CC1` is higher in half-life: 1.5 min for the first, greater than 30 min for the second.

Going from `Cc1c(Cl)cccc1NC(=O)CNS(=O)(=O)c1cccs1` to `Cc1ccc(S(=O)(=O)Nc2cnccc2C(=O)Nc2nc(-c3ccc(Cl)c(Cl)c3)cs2)cc1`, the half-life rises from 5.47 min to greater than 30 min.

First: CC1=C(C(=O)NCc2ccccc2)C(c2ccccc2Br)N=C(Nc2nc3ccccc3o2)N1 (stereo unspecified)
Second: CC1(C)CC(=O)C2=C(C1)NC(Nc1nc3ccccc3o1)=NC2c1ccccc1Cl (stereo unspecified)
The half-life of the first is 1.6-fold lower: 7 min for the first, 11 min for the second.

Compared with `CC1CN(c2ccc(Nc3nc(-c4ccncc4)nc4ccccc34)cc2F)CC(C)O1` (stereo unspecified), `C=Cc1ccc(Cn2c(C(=O)O)c(CNCc3ccccc3)c3ccc(OC)cc32)cc1` is 2-fold higher in half-life: 5 min for the first, 9.8 min for the second.

First: COC(=O)CNC(=O)c1nc(-c2ccc([S+](C)(=O)[O-])cc2)c2cnccn12
Second: CC1CCC(n2c3cnccc3c3cnc(Nc4ccc5c(n4)CCN(C(=O)CO)C5)nc32)CC1 (stereo unspecified)
The half-life of the first is higher: greater than 30 min for the first, 23.5 min for the second.

Compared with `O=S(=O)(Nc1cccc(C(F)(F)F)c1)c1ccc(NS(=O)(=O)c2ccc3c(c2)OCCO3)cc1`, `Cc1ccc(NS(=O)(=O)c2ccc3[nH]c4c(c3c2)CCCCCC4)cc1` is 9.6-fold lower in half-life: 20 min for the first, 2.08 min for the second.

Compared with `Cn1c2ccccc2c2c3c(c4c5ccccc5n(CCC#N)c4c21)CNC3=O`, `CN(C)c1ccc(-c2cc[nH]c(=O)c2N)cc1` is higher in half-life: 4.29 min for the first, greater than 30 min for the second.
